# In US10683269B2 (MISSION THERAPEUTICS LIMITED, priority 2016, dated 2020):
# Molecular target: T1, USP7 (Homo sapiens, UniProt Q93009)
# T1 construct: The USP7 construct was PCR amplified and cloned into a pFLAG-CMV-6a vector (Sigma-Aldrich) with an N-terminal FLAG tag; made in house; host or cells: HEK293T
# Experiment: USP7 biochemical IC50 assay (fluorescence polarisation, TAMRA labelled peptide linked to ubiquitin via an iso-peptide bond)
# Conditions: 30 min pre-incubation of enzyme and compound, read after 2 hr incubation at room temperature, read-out: IC50 range
# In short: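 Fluorescence polarisation at 540 nm excitation/590 nm emission, read immediately and after 2 hr at room temperature, following addition of 50 nM TAMRA-labelled iso-peptide ubiquitin substrate.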
# T1 sequence (Q93009 whole entry): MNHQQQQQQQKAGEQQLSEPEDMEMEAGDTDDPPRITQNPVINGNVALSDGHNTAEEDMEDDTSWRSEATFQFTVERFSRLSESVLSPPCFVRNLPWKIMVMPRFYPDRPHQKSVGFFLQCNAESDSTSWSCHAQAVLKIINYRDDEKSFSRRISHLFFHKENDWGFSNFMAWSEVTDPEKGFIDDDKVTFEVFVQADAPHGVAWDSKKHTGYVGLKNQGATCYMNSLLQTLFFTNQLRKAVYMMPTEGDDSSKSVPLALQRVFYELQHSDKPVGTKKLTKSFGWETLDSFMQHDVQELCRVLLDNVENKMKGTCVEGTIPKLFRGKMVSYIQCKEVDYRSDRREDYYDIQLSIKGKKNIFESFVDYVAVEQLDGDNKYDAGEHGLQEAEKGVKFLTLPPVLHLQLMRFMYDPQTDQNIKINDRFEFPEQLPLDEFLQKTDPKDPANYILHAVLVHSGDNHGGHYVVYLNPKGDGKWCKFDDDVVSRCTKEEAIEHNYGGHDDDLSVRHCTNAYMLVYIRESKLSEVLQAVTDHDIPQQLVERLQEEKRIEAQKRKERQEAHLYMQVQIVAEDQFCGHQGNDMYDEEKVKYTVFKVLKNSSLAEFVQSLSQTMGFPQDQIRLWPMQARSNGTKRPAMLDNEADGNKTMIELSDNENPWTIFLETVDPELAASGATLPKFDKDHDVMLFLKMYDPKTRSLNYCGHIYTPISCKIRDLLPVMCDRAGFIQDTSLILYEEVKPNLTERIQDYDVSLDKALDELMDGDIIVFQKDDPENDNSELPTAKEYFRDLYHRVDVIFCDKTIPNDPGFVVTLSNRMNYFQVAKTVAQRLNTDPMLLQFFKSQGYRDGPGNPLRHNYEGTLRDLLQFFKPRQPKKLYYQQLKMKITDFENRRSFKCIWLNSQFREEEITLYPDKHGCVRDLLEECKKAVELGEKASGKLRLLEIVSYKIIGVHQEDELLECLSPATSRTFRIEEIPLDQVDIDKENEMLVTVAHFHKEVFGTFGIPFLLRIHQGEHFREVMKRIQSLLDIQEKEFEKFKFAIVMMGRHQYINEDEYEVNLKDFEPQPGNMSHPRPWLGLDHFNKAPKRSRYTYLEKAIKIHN
row,Structure (SMILES),IC50
1,"N#CN1Cc2nc(NCCc3ccccn3)nc(-c3ccccc3)c2C1 [Example 114, 4-phenyl-2-((2-(pyridin-2-yl)ethyl)amino)-5,7-dihydro-6H-pyrrolo[3,4-d]pyrimidine-6-carbonitrile]",1 to 10 µM
2,"N#CN1Cc2nc(NCc3cccnc3)nc(-c3ccccc3)c2C1 [Example 118, 4-phenyl-2-((pyridin-3-ylmethyl)amino)-5,7-dihydro-6H-pyrrolo[3,4-d]pyrimidine-6-carbonitrile]",1 to 10 µM
3,"N#CN1Cc2nc(NCc3cncs3)nc(-c3ccccc3)c2C1 [Example 119, 4-phenyl-2-((thiazol-5-ylmethyl)amino)-5,7-dihydro-6H-pyrrolo[3,4-d]pyrimidine-6-carbonitrile]",1 to 10 µM
4,"N#CN1Cc2nc(NCCO)nc(-c3ccccc3)c2C1 [Example 120, 2-((2-hydroxyethyl)amino)-4-phenyl-5,7-dihydro-6H-pyrrolo[3,4-d]pyrimidine-6-carbonitrile]",1 to 10 µM
5,"N#CN1Cc2nc(NCc3ccco3)nc(-c3ccccc3)c2C1 [Example 121, 2-((furan-2-ylmethyl)amino)-4-phenyl-5,7-dihydro-6H-pyrrolo[3,4-d]pyrimidine-6-carbonitrile]",10 to 30 µM
6,"CN1CCOC(CNc2nc3c(c(-c4ccccc4)n2)CN(C#N)C3)C1 (stereo not drawn) [Example 124, 2-(((4-methylmorpholin-2-yl)methyl)amino)-4-phenyl-5,7-dihydro-6H-pyrrolo[3,4-d]pyrimidine-6-carbonitrile]",1 to 10 µM
7,"CN1CCCC(CNc2nc3c(c(-c4ccccc4)n2)CN(C#N)C3)C1 (stereo not drawn) [Example 125, 2-(((1-methylpiperidin-3-yl)methyl)amino)-4-phenyl-5,7-dihydro-6H-pyrrolo[3,4-d]pyrimidine-6-carbonitrile]",1 to 10 µM
8,"Cn1nccc1CNc1nc2c(c(-c3ccccc3)n1)CN(C#N)C2 [Example 126, 2-(((1-methyl-1H-pyrazol-5-yl)methyl)amino)-4-phenyl-5,7-dihydro-6H-pyrrolo[3,4-d]pyrimidine-6-carbonitrile]",1 to 10 µM
9,"CN1CCC(CNc2nc3c(c(-c4ccccc4)n2)CN(C#N)C3)C1 (stereo not drawn) [Example 127, 2-(((1-methylpyrrolidin-3-yl)methyl)amino)-4-phenyl-5,7-dihydro-6H-pyrrolo[3,4-d]pyrimidine-6-carbonitrile]",1 to 10 µM
10,"N#CN1Cc2nc(-c3ccccc3)nc(NCC(N)=O)c2C1 [Example 132, 2-((6-cyano-2-phenyl-6,7-dihydro-5H-pyrrolo[3,4-d]pyrimidin-4-yl)amino)acetamide]",10 to 30 µM
11,"COc1cccc(-c2nc3c(c(N4CCCC4)n2)CN(C#N)C3)c1 [Example 136, 2-(3-methoxyphenyl)-4-(pyrrolidin-1-yl)-5,7-dihydro-6H-pyrrolo[3,4-d]pyrimidine-6-carbonitrile]",30 to 100 µM
12,"N#CN1Cc2nc(-c3cccnc3)nc(N3CCCC3)c2C1 [Example 137, 2-(pyridin-3-yl)-4-(pyrrolidin-1-yl)-5,7-dihydro-6H-pyrrolo[3,4-d]pyrimidine-6-carbonitrile]",1 to 10 µM
13,"Cc1[nH]ncc1-c1nc2c(c(N3CCc4ccccc4C3)n1)CN(C#N)C2 [Example 139, 4-(3,4-dihydroisoquinolin-2(1H)-yl)-2-(5-methyl-1H-pyrazol-4-yl)-5,7-dihydro-6H-pyrrolo[3,4-d]pyrimidine-6-carbonitrile]",1 to 10 µM
14,"N#Cc1cccc(-c2nc3c(c(N4CCc5ccccc5C4)n2)CN(C#N)C3)c1 [Example 141, 2-(3-cyanophenyl)-4-(3,4-dihydroisoquinolin-2(1H)-yl)-5,7-dihydro-6H-pyrrolo[3,4-d]pyrimidine-6-carbonitrile]",1 to 10 µM
15,"Cn1cc(-c2nc3c(c(N4CCc5ccccc5C4)n2)CN(C#N)C3)cn1 [Example 142, 4-(3,4-dihydroisoquinolin-2(1H)-yl)-2-(1-methyl-1H-pyrazol-4-yl)-5,7-dihydro-6H-pyrrolo[3,4-d]pyrimidine-6-carbonitrile]",1 to 10 µM
16,"Cc1[nH]ncc1-c1nc2c(c(N3CCCC3C(N)=O)n1)CN(C#N)C2 (stereo not drawn) [Example 144, 1-(6-cyano-2-(5-methyl-1H-pyrazol-4-yl)-6,7-dihydro-5H-pyrrolo[3,4-d]pyrimidin-4-yl)pyrrolidine-2-carboxamide]",10 to 30 µM
17,"N#CN1Cc2nc(-c3cn[nH]c3)nc(N3CCc4ccccc4C3)c2C1 [Example 145, 4-(3,4-dihydroisoquinolin-2(1H)-yl)-2-(1H-pyrazol-4-yl)-5,7-dihydro-6H-pyrrolo[3,4-d]pyrimidine-6-carbonitrile]",1 to 10 µM
18,COCCn1cc(-c2nc3c(c(N4CCc5ccccc5C4)n2)CN(C#N)C3)cn1 [Example 146],< 1 µM
19,"N#CN1Cc2nc(Cl)nc(-c3ccccc3F)c2C1 [Example 150, 2-chloro-4-(2-fluorophenyl)-5,7-dihydro-6H-pyrrolo[3,4-d]pyrimidine-6-carbonitrile]",30 to 100 µM
20,"N#CN1Cc2cccc(-c3ccccc3C(=O)N3CCCC3)c2C1 [Example 155, 4-(2-(pyrrolidine-1-carbonyl)phenyl)isoindoline-2-carbonitrile]",10 to 30 µM

# Second part, the molecule after the results:
row,IC50,Structure (SMILES)
1,10 to 30 µM,"N#CN1Cc2nc(NC3CCCc4ccccc43)nc(-c3ccccc3)c2C1 (stereo not drawn) [Example 115, 4-phenyl-2-((1,2,3,4-tetrahydronaphthalen-1-yl)amino)-5,7-dihydro-6H-pyrrolo[3,4-d]pyrimidine-6-carbonitrile]"
2,1 to 10 µM,"N#CN1Cc2nc(Nc3ccccc3)nc(-c3ccccc3)c2C1 [Example 116, 4-phenyl-2-(phenylamino)-5,7-dihydro-6H-pyrrolo[3,4-d]pyrimidine-6-carbonitrile]"
3,1 to 10 µM,"N#CN1Cc2nc(NCc3ccccn3)nc(-c3ccccc3)c2C1 [Example 117, 4-phenyl-2-((pyridin-2-ylmethyl)amino)-5,7-dihydro-6H-pyrrolo[3,4-d]pyrimidine-6-carbonitrile]"
4,1 to 10 µM,"N#CN1Cc2nc(NCCCn3ccnc3)nc(-c3ccccc3)c2C1 [Example 122, 2-((3-(1H-imidazol-1-yl)propyl)amino)-4-phenyl-5,7-dihydro-6H-pyrrolo[3,4-d]pyrimidine-6-carbonitrile]"
5,10 to 30 µM,"CCNc1nc2c(c(-c3ccccc3C(N)=O)n1)CN(C#N)C2 [Example 123, 2-(6-cyano-2-(ethylamino)-6,7-dihydro-5H-pyrrolo[3,4-c]pyrimidin-4-yl)benzamide]"
6,1 to 10 µM,"CC(=O)Nc1nc2c(c(N3CCc4ccccc4C3)n1)CN(C#N)C2 [Example 128, N-(6-cyano-4-(3,4-dihydroisoquinolin-2(1H)-yl)-6,7-dihydro-5H-pyrrolo[3,4-d]pyrimidin-2-yl)acetamide]"
7,10 to 30 µM,"N#CN1Cc2nc(NC(=O)C3CNC(=O)C3)nc(-c3ccccc3)c2C1 (stereo not drawn) [Example 129, N-(6-cyano-4-phenyl-6,7-dihydro-5H-pyrrolo[3,4-c]pyrimidin-2-yl)-5-oxopyrrolidine-3-carboxamide]"
8,10 to 30 µM,"COc1ccc(-c2nc3c(c(N4CCCC4)n2)CN(C#N)C3)cc1 [Example 130, 2-(4-methoxyphenyl)-4-(pyrrolidin-1-yl)-5,7-dihydro-6H-pyrrolo[3,4-c]pyrimidine-6-carbonitrile]"
9,10 to 30 µM,"N#CN1Cc2nc(-c3ccccc3)nc(N3CCCC3C(N)=O)c2C1 (stereo not drawn) [Example 131, 1-(6-cyano-2-phenyl-6,7-dihydro-5H-pyrrolo[3,4-d]pyrimidin-4-yl)pyrrolidine-2-carboxamide]"
10,10 to 30 µM,"CNC(=O)C1CCCN1c1nc(-c2ccccc2)nc2c1CN(C#N)C2 (stereo not drawn) [Example 133, 1-(6-cyano-2-phenyl-6,7-dihydro-5H-pyrrolo[3,4-d]pyrimidin-4-yl)-N-methylpyrrolidine-2-carboxamide]"
11,10 to 30 µM,"Cc1[nH]ncc1-c1nc2c(c(N3CCCC3)n1)CN(C#N)C2 [Example 134, 2-(5-methyl-1H-pyrazol-4-yl)-4-(pyrrolidin-1-yl)-5,7-dihydro-6H-pyrrolo[3,4-d]pyrimidine-6-carbonitrile]"
12,1 to 10 µM,"COc1ccccc1-c1nc2c(c(N3CCCC3)n1)CN(C#N)C2 [Example 135, 2-(2-methoxyphenyl)-4-(pyrrolidin-1-yl)-5,7-dihydro-6H-pyrrolo[3,4-d]pyrimidine-6-carbonitrile]"
13,1 to 10 µM,"N#CN1Cc2nc(-c3ccccc3C(N)=O)nc(N3CCc4ccccc4C3)c2C1 [Example 138, 2-(6-cyano-4-(3,4-dihydroisoquinolin-2(1H)-yl)-6,7-dihydro-5H-pyrrolo[3,4-d]pyrimidin-2-yl)benzamide]"
14,1 to 10 µM,"COc1ccccc1-c1nc2c(c(N3CCc4ccccc4C3)n1)CN(C#N)C2 [Example 140, 4-(3,4-dihydroisoquinolin-2(1H)-yl)-2-(2-methoxyphenyl)-5,7-dihydro-6H-pyrrolo[3,4-d]pyrimidine-6-carbonitrile]"
15,10 to 30 µM,"Cc1ccccc1-c1nc2c(c(N3CCCC3C(N)=O)n1)CN(C#N)C2 (stereo not drawn) [Example 143, 1-(6-cyano-2-(o-tolyl)-6,7-dihydro-5H-pyrrolo[3,4-d]pyrimidin-4-yl)pyrrolidine-2-carboxamide]"
16,1 to 10 µM,"Cc1[nH]ncc1-c1nc2c(c(N3CCc4cccnc4C3)n1)CN(C#N)C2 [Example 147, 4-(5,8-dihydro-1,7-naphthyridin-7(6H)-yl)-2-(5-methyl-1H-pyrazol-4-yl)-5,7-dihydro-6H-pyrrolo[3,4-d]pyrimidine-6-carbonitrile]"
17,10 to 30 µM,"CC(=O)Nc1nc2c(c(N3CCCC3)n1)CN(C#N)C2 [Example 148, N-(6-cyano-4-(pyrrolidin-1-yl)-6,7-dihydro-5H-pyrrolo[3,4-d]pyrimidin-2-yl)acetamide]"
18,10 to 30 µM,"N#CN1Cc2nc(Cl)nc(-c3ccc(F)cc3)c2C1 [Example 149, 2-chloro-4-(4-fluorophenyl)-5,7-dihydro-6H-pyrrolo[3,4-d]pyrimidine-6-carbonitrile]"
19,1 to 10 µM,"Cc1nc2c(c(-c3ccc(F)cc3)n1)CN(C#N)C2 [Example 151, 4-(4-fluorophenyl)-2-methyl-5,7-dihydro-6H-pyrrolo[3,4-d]pyrimidine-6-carbonitrile]"
